Assay results: patent publication US20250059207A1, “6,6-FUSED HETEROCYCLIC COMPOUNDS AS METTL3 INHIBITORS” (858 Therapeutics, Inc., priority 2021, published 2025)
pIC50: −log10 of the molar value.

Tested on: MOLM-13 cells
Assay: Viability assay in MOLM-13 cells (CellTiter-Glo 2.0)
Assay type: cell-based, human
Details: MOLM-13 human AML cells, 72 hours, CellTiter-Glo 2.0; read-out: MOLM-13 IC50 (cell viability)

SMILES	pIC50
CC1(C)CCN(Cc2ccc3nc(Cn4ccc5c(N6CC(N7CCOCC7)C6)cncc5c4=O)cn3c2)CC1 [Compound 118, 2-({6-[(4,4-dimethylpiperidin-1-yl)methyl]imidazo[1,2-a]pyridin-2-yl}methyl)-5-[3-(morpholin-4-yl)azetidin-1-yl]-1,2-dihydro-2,7-naphthyridin-1-one]	5.00 to 6.00
CC1(C)CCN(Cc2ccc3nc(Cn4ccc5c(N6CC7(CCNCC7)C6)cncc5c4=O)cn3c2)CC1 [Compound 119, 5-{2,7-diazaspiro[3.5]nonan-2-yl}-2-({6-[(4,4-dimethylpiperidin-1-yl)methyl]imidazo[1,2-a]pyridin-2-yl}methyl)-1,2-dihydro-2,7-naphthyridin-1-one]	5.00 to 6.00
CC1(C)CCN(Cc2ccc3nc(Cn4ccc5c(-c6ccc(S(N)(=O)=O)cc6)cncc5c4=O)cn3c2)CC1 [Compound 123, 4-[7-({6-[(4,4-dimethylpiperidin-1-yl)methyl]imidazo[1,2-a]pyridin-2-yl}methyl)-8-oxo-7,8-dihydro-2,7-naphthyridin-4-yl]benzene-1-sulfonamide]	< 5.00
CC1(C)CCN(Cc2ccc3nc(Cn4ccc5c(C#Cc6ccncc6)cncc5c4=O)cn3c2)CC1 [Compound 124, 2-((6-((4,4-dimethylpiperidin-1-yl)methyl)imidazo[1,2-a]pyridin-2-yl)methyl)-5-(pyridin-4-ylethynyl)-2,7-naphthyridin-1(2H)-one]	< 5.00
CN(C)CC1CN(c2cncc3c(=O)n(Cc4cn5cc(CN6CCC(C)(C)CC6)ccc5n4)ccc23)C1 [Compound 125, 5-{3-[(dimethylamino)methyl]azetidin-1-yl}-2-({6-[(4,4-dimethylpiperidin-1-yl)methyl]imidazo[1,2-a]pyridin-2-yl}methyl)-1,2-dihydro-2,7-naphthyridin-1-one]	< 5.00
CN1CCN(C2CN(c3cncc4c(=O)n(Cc5cn6cc(CN7CCC(C)(C)CC7)ccc6n5)ccc34)C2)CC1 [Compound 126, 2-({6-[(4,4-dimethylpiperidin-1-yl)methyl]imidazo[1,2-a]pyridin-2-yl}methyl)-5-[3-(4-methylpiperazin-1-yl)azetidin-1-yl]-1,2-dihydro-2,7-naphthyridin-1-one]	< 5.00
O=c1c2cncc(N3CC4(CCOCC4)C3)c2ccn1Cc1cn2cc(CN3CCC4(CC3)CC4)ccc2n1 [Compound 127, 2-{[6-({6-azaspiro[2.5]octan-6-yl}methyl)imidazo[1,2-a]pyridin-2-yl]methyl}-5-{7-oxa-2-azaspiro[3.5]nonan-2-yl}-1,2-dihydro-2,7-naphthyridin-1-one]	5.00 to 6.00
O=c1c2cncc(N3CC4(CCOCC4)C3)c2ccn1Cc1cn2cc(CN3CC4(CCC4)C3)ccc2n1 [Compound 128, 2-{[6-({2-azaspiro[3.3]heptan-2-yl}methyl)imidazo[1,2-a]pyridin-2-yl]methyl}-5-{7-oxa-2-azaspiro[3.5]nonan-2-yl}-1,2-dihydro-2,7-naphthyridin-1-one]	5.00 to 6.00
O=c1c2cncc(N3CC4(CCOCC4)C3)c2ccn1Cc1cn2cc(CN3CCC4(CCC4)CC3)ccc2n1 [Compound 129, 2-((6-((7-azaspiro[3.5]nonan-7-yl)methyl)imidazo[1,2-a]pyridin-2-yl)methyl)-5-(7-oxa-2-azaspiro[3.5]nonan-2-yl)-2,7-naphthyridin-1(2H)-one]	5.00 to 6.00
O=c1c2cncc(N3CC4(CCOCC4)C3)c2ccn1Cc1cn2cc(CN3CCC4(CCOC4)C3)ccc2n1 (centres unmarked) [Compound 130, 5-{7-oxa-2-azaspiro[3.5]nonan-2-yl}-2-{[6-({2-oxa-7-azaspiro[4.4]nonan-7-yl}methyl)imidazo[1,2-a]pyridin-2-yl]methyl}-1,2-dihydro-2,7-naphthyridin-1-one]	5.00 to 6.00
O=c1c2cncc(N3CC4(CCOCC4)C3)c2ccn1Cc1cn2cc(CN3CCC(C(F)(F)F)CC3)ccc2n1 [Compound 132, 5-{7-oxa-2-azaspiro[3.5]nonan-2-yl}-2-[(6-{[4-(trifluoromethyl)piperidin-1-yl]methyl}imidazo[1,2-a]pyridin-2-yl)methyl]-1,2-dihydro-2,7-naphthyridin-1-one]	5.00 to 6.00
CC1(C#N)CCN(Cc2ccc3nc(Cn4ccc5c(N6CC7(CCOCC7)C6)cncc5c4=O)cn3c2)CC1 [Compound 134, 4-methyl-1-({2-[(5-{7-oxa-2-azaspiro[3.5]nonan-2-yl}-1-oxo-1,2-dihydro-2,7-naphthyridin-2-yl)methyl]imidazo[1,2-a]pyridin-6-yl}methyl)piperidine-4-carbonitrile]	< 5.00
O=c1c2cncc(N3CC4(CCOCC4)C3)c2ccn1Cc1cn2cc(CN3CC4(C3)CC(F)(F)C4)ccc2n1 [Compound 135, 2-{[6-({6,6-difluoro-2-azaspiro[3.3]heptan-2-yl}methyl)imidazo[1,2-a]pyridin-2-yl]methyl}-5-{7-oxa-2-azaspiro[3.5]nonan-2-yl}-1,2-dihydro-2,7-naphthyridin-1-one]	5.00 to 6.00
O=c1c2cncc(N3CC4(CCOCC4)C3)c2ccn1Cc1cn2cc(CN3CC4(CC(F)C4)C3)ccc2n1 [Compound 136, 2-{[6-({6-fluoro-2-azaspiro[3.3]heptan-2-yl}methyl)imidazo[1,2-a]pyridin-2-yl]methyl}-5-{7-oxa-2-azaspiro[3.5]nonan-2-yl}-1,2-dihydro-2,7-naphthyridin-1-one]	5.00 to 6.00
O=c1c2cncc(N3CC4(CCOCC4)C3)c2ccn1Cc1cn2cc(CN3CCC4(CCCC4)C3)ccc2n1 [Compound 137]	5.00 to 6.00
CC1CCN(Cc2ccc3nc(Cn4ccc5c(N6CC7(CCOCC7)C6)cncc5c4=O)cn3c2)CC1 [Compound 138, 2-({6-[(4-methylpiperidin-1-yl)methyl]imidazo[1,2-a]pyridin-2-yl}methyl)-5-{7-oxa-2-azaspiro[3.5]nonan-2-yl}-1,2-dihydro-2,7-naphthyridin-1-one]	5.00 to 6.00
O=c1c2cncc(N3CC4(CCOCC4)C3)c2ccn1Cc1cn2cc(CN3CCC4(C3)CC(F)(F)C4)ccc2n1 [Compound 140, 2-{[6-({2,2-difluoro-6-azaspiro[3.4]octan-6-yl}methyl)imidazo[1,2-a]pyridin-2-yl]methyl}-5-{7-oxa-2-azaspiro[3.5]nonan-2-yl}-1,2-dihydro-2,7-naphthyridin-1-one]	5.00 to 6.00
O=c1c2cncc(N3CC4(CCOCC4)C3)c2ccn1Cc1cn2cc(CN3CCC4(CC3)CC4(F)F)ccc2n1 [Compound 141, 2-{[6-({1,1-difluoro-6-azaspiro[2.5]octan-6-yl}methyl)imidazo[1,2-a]pyridin-2-yl]methyl}-5-{7-oxa-2-azaspiro[3.5]nonan-2-yl}-1,2-dihydro-2,7-naphthyridin-1-one]	< 5.00
O=c1c2cncc(N3CC4(C3)CC(F)(F)C4)c2ccn1Cc1cn2cc(CNCC3CC(F)C3)ccc2n1 (centres unmarked) [Compound 142, 5-{6,6-difluoro-2-azaspiro[3.3]heptan-2-yl}-2-{[6-({[(3-fluorocyclobutyl)methyl]amino}methyl)imidazo[1,2-a]pyridin-2-yl]methyl}-1,2-dihydro-2,7-naphthyridin-1-one]	5.00 to 6.00
O=c1c2cncc(N3CC4(COC4)C3)c2ccn1Cc1cn2cc(CNCC3CC(F)C3)ccc2n1 (centres unmarked) [Compound 143, 2-{[6-({[(3-fluorocyclobutyl)methyl]amino}methyl)imidazo[1,2-a]pyridin-2-yl]methyl}-5-{2-oxa-6-azaspiro[3.3]heptan-6-yl}-1,2-dihydro-2,7-naphthyridin-1-one]	5.00 to 6.00
